Structures are written as SMILES.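 Tested at 5 concentrations; 48 h exposure; 96-well plates; endpoints linearly interpolated, else capped at highest concentration. At the GI50, growth is halved. At the TGI there is no net growth.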

Results on eleven compounds are retold here after PubChem BioAssay (NCI).

Some test systems named below: DU-145 prostate; KM12 colon; OVCAR-8 ovarian; SK-MEL-28 melanoma; SF-268 CNS; SNB-19 CNS; SNB-75 CNS; CCRF-CEM leukemia; OVCAR-5 ovarian; MDA-MB-231 breast.
What all share (assay): growth of human tumour cells (NCI), 48 h

Take `CC(C)(C)OC(=O)N1CCc2c(sc3ncnc(N/N=C/c4cccc5ccccc45)c23)C1`: the GI50 in the assay on DU-145 prostate is 5.51 µM; in the assay on KM12 colon, 4.3 µM; with OVCAR-8 ovarian, 4.23 µM; with SK-MEL-28 melanoma, 7.78 µM; with SF-268 CNS, 4.59 µM; with SNB-19 CNS, 5.05 µM. In addition, the GI50 with SNB-75 CNS was 1.67 µM; in the assay with CCRF-CEM leukemia, 3.6 µM; with OVCAR-5 ovarian, 4.71 µM; in the assay with MDA-MB-231 breast, 5.93 µM. The TGI is over 100 µM with DU-145 prostate; 76.9 µM with KM12 colon; over 100 µM in the assay on OVCAR-8 ovarian; over 100 µM in the assay with SK-MEL-28 melanoma; over 100 µM in the assay on SF-268 CNS; over 100 µM in the assay with SNB-19 CNS. Besides, the TGI is 8.2 µM with SNB-75 CNS, over 100 µM with CCRF-CEM leukemia, over 100 µM in the assay on OVCAR-5 ovarian and over 100 µM in the assay on MDA-MB-231 breast.

Regarding `O=C1CCCCN1CCCCC#Cc1ccccc1C#Cc1ccc([N+](=O)[O-])cc1`, the GI50 was 17.5 µM with DU-145 prostate; 3.78 µM with KM12 colon; 2.81 µM with OVCAR-8 ovarian; 10.5 µM in the assay on SK-MEL-28 melanoma; 11.7 µM with SF-268 CNS; 6.57 µM in the assay on SNB-19 CNS. Besides, the GI50 in the assay on SNB-75 CNS was 2.21 µM; in the assay with CCRF-CEM leukemia, 2.87 µM; in the assay with OVCAR-5 ovarian, 5.25 µM; with MDA-MB-231 breast it was 12.8 µM. For the same compound, the TGI came out at 36 µM in the assay with DU-145 prostate; 15.7 µM with KM12 colon; 9.13 µM with OVCAR-8 ovarian; 22.4 µM in the assay with SK-MEL-28 melanoma; 27.3 µM in the assay on SF-268 CNS; 19.4 µM in the assay with SNB-19 CNS. For the same compound, the TGI worked out at 28.9 µM in the assay on SNB-75 CNS, 18.2 µM in the assay with CCRF-CEM leukemia, 18.7 µM in the assay with OVCAR-5 ovarian and 51.4 µM in the assay with MDA-MB-231 breast.

For `CS(=O)(=O)c1ccc([C@H]2O[C@@H](CO)C[C@]2(O)c2ccc(S(C)(=O)=O)cc2)cc1`, the GI50 in the assay on DU-145 prostate, in the assay on KM12 colon, in the assay on OVCAR-8 ovarian, in the assay with SK-MEL-28 melanoma, in the assay with SF-268 CNS and in the assay with SNB-19 CNS was over 100 µM throughout. For the same compound, the GI50 with SNB-75 CNS, in the assay with CCRF-CEM leukemia, with OVCAR-5 ovarian and in the assay on MDA-MB-231 breast was over 100 µM in each case. Besides, the TGI with DU-145 prostate, with KM12 colon, in the assay on OVCAR-8 ovarian, in the assay with SK-MEL-28 melanoma, with SF-268 CNS and with SNB-19 CNS was over 100 µM throughout. Besides, the TGI in the assay with SNB-75 CNS, with CCRF-CEM leukemia, in the assay with OVCAR-5 ovarian and with MDA-MB-231 breast was over 100 µM in each case.

For the compound `Cn1c(=O)c2[nH]c(SCc3ccccn3)nc2n(C)c1=S`, the TGI in the assay on DU-145 prostate, with KM12 colon, with OVCAR-8 ovarian, with SK-MEL-28 melanoma, in the assay with SF-268 CNS and with SNB-19 CNS was over 100 µM each time. Moreover, the TGI in the assay on SNB-75 CNS is 45.2 µM; in the assay with CCRF-CEM leukemia, over 100 µM; in the assay on OVCAR-5 ovarian it was over 100 µM; with MDA-MB-231 breast, over 100 µM.

For the compound `N#Cc1ccc(NC(=O)Nc2ccc(Oc3ccc(NC(=O)Nc4ccc(C#N)cc4)cc3)cc2)cc1`, the GI50 in the assay with DU-145 prostate is 31.2 µM; in the assay with KM12 colon, 11.2 µM; in the assay on OVCAR-8 ovarian it was 14.4 µM; in the assay on SK-MEL-28 melanoma, 79.2 µM; with SF-268 CNS, 10.8 µM; in the assay with SNB-19 CNS, 20 µM. The GI50 was 4.14 µM with SNB-75 CNS, 22.1 µM in the assay on CCRF-CEM leukemia, 26.1 µM in the assay with OVCAR-5 ovarian and 12.4 µM with MDA-MB-231 breast. Besides, the TGI with DU-145 prostate was over 100 µM; in the assay with KM12 colon, over 100 µM; in the assay on OVCAR-8 ovarian it was over 100 µM; in the assay on SK-MEL-28 melanoma, over 100 µM; in the assay on SF-268 CNS, over 100 µM; in the assay with SNB-19 CNS, 88.7 µM. Moreover, the TGI is 24.4 µM in the assay on SNB-75 CNS, over 100 µM with CCRF-CEM leukemia, over 100 µM with OVCAR-5 ovarian and over 100 µM in the assay with MDA-MB-231 breast.

In the case of `COC(=O)[C@]12CC[C@@H](C)[C@H](C)[C@@H]1C1=CC[C@@H]3[C@@]4(C)C/C(=N\O)[C@H](O)[C@@]5(C)COC(=C45)C[C@@]3(C)[C@]1(C)CC2`, the GI50 in the assay with DU-145 prostate was 8.57 µM; with KM12 colon, 5.77 µM; in the assay with OVCAR-8 ovarian, 10 µM; in the assay on SK-MEL-28 melanoma it was 15 µM; in the assay with SF-268 CNS, 12.6 µM; in the assay with SNB-19 CNS it was 10.5 µM. The GI50 with SNB-75 CNS was 3.51 µM; in the assay on CCRF-CEM leukemia it was 2.79 µM; with OVCAR-5 ovarian, 15.9 µM; with MDA-MB-231 breast, 3.84 µM. Moreover, the TGI in the assay on DU-145 prostate is 22.8 µM; with KM12 colon, 20.2 µM; in the assay with OVCAR-8 ovarian it was 26.6 µM; in the assay on SK-MEL-28 melanoma, 33.7 µM; in the assay with SF-268 CNS, 30 µM; with SNB-19 CNS, 31.5 µM. Further, the TGI in the assay on SNB-75 CNS worked out at 21.4 µM; in the assay on CCRF-CEM leukemia, 8.83 µM; in the assay on OVCAR-5 ovarian, 33.6 µM; in the assay with MDA-MB-231 breast, 16 µM.

Consider `Cc1ccc(NC(=O)c2cccc(N(C)C)c2)cc1NC(=O)c1ccc(O)cc1`, for which the GI50 in the assay with DU-145 prostate was 62.6 µM; in the assay on KM12 colon it was 54.9 µM; in the assay on OVCAR-8 ovarian, 53.2 µM; with SK-MEL-28 melanoma it was over 50.1 µM; in the assay with SF-268 CNS, 44.6 µM; in the assay on SNB-19 CNS it was 51.1 µM. The GI50 is 26.3 µM in the assay on SNB-75 CNS, 16.6 µM in the assay with CCRF-CEM leukemia, over 82.4 µM with OVCAR-5 ovarian and 33 µM with MDA-MB-231 breast. For the same compound, the TGI with DU-145 prostate, in the assay on KM12 colon, in the assay with OVCAR-8 ovarian, with SK-MEL-28 melanoma, in the assay on SF-268 CNS and with SNB-19 CNS was over 100 µM each time. Moreover, the TGI in the assay with SNB-75 CNS was over 81.8 µM; in the assay with CCRF-CEM leukemia, over 100 µM; in the assay with OVCAR-5 ovarian it was over 100 µM; in the assay on MDA-MB-231 breast, over 93.6 µM.

On to `COc1ccc(-c2cc(=O)c3ccc(O)cc3o2)cc1OC`, for which the TGI in the assay on DU-145 prostate, in the assay on KM12 colon, in the assay on OVCAR-8 ovarian, in the assay on SK-MEL-28 melanoma, in the assay on SF-268 CNS and in the assay with SNB-19 CNS was over 100 µM each time. In addition, the TGI in the assay on SNB-75 CNS, in the assay on CCRF-CEM leukemia, in the assay on OVCAR-5 ovarian and with MDA-MB-231 breast was over 100 µM in each case.

With `Cc1ccc2c(c1)[n+]([O-])c(N)n[n+]2[O-]`, the TGI in the assay with DU-145 prostate, with KM12 colon, with OVCAR-8 ovarian, in the assay with SK-MEL-28 melanoma, in the assay on SF-268 CNS and in the assay on SNB-19 CNS was over 100 µM in each case. For the same compound, the TGI with SNB-75 CNS, in the assay on CCRF-CEM leukemia, in the assay with OVCAR-5 ovarian and with MDA-MB-231 breast was over 100 µM in each case.

`CN1CCN(C(=O)OCc2nc3c(N4CCOCC4)nc(Cl)nc3n2C)CC1`: the GI50 was 1.39 µM with DU-145 prostate; 2.05 µM in the assay on KM12 colon; 1.33 µM in the assay with OVCAR-8 ovarian; 1.58 µM in the assay on SK-MEL-28 melanoma; 1.59 µM in the assay on SF-268 CNS; 1.65 µM in the assay on SNB-19 CNS. Also, the GI50 with SNB-75 CNS is 1.35 µM; in the assay with CCRF-CEM leukemia, 0.313 µM; in the assay on OVCAR-5 ovarian it was 1.6 µM; in the assay with MDA-MB-231 breast it was 0.566 µM. For the same compound, the TGI was determined as 3.09 µM with DU-145 prostate; 6.08 µM with KM12 colon; 5.68 µM in the assay on OVCAR-8 ovarian; 3.11 µM with SK-MEL-28 melanoma; 3.72 µM with SF-268 CNS; 3.62 µM with SNB-19 CNS. For the same compound, the TGI in the assay on SNB-75 CNS was 2.73 µM; in the assay with CCRF-CEM leukemia, 1.78 µM; in the assay with OVCAR-5 ovarian, 3.54 µM; in the assay with MDA-MB-231 breast it was 2.22 µM.

In the case of `O=C(N/N=C/c1ccccc1O)c1ccccc1Nc1ccnc(C(F)(F)F)c1`, the GI50 was 0.478 µM with DU-145 prostate; 0.484 µM in the assay on KM12 colon; 0.711 µM with OVCAR-8 ovarian; 1.71 µM in the assay with SK-MEL-28 melanoma; 0.448 µM in the assay on SF-268 CNS; 1.77 µM in the assay with SNB-19 CNS. Besides, the GI50 in the assay with SNB-75 CNS is 2.25 µM; in the assay with CCRF-CEM leukemia, 0.123 µM; with OVCAR-5 ovarian it was 4.34 µM; in the assay on MDA-MB-231 breast, 0.796 µM. The TGI was over 48.7 µM in the assay with DU-145 prostate; 32.7 µM in the assay on KM12 colon; over 37.4 µM with OVCAR-8 ovarian; over 88.1 µM with SK-MEL-28 melanoma; over 89.3 µM with SF-268 CNS; over 100 µM with SNB-19 CNS. Also, the TGI was 52.2 µM in the assay on SNB-75 CNS, over 92.3 µM in the assay on OVCAR-5 ovarian and over 95.4 µM with MDA-MB-231 breast.
